Results reported in patent US5597894A (The Louisiana State University Medical Center Foundation, priority 1995, dated 1997).
Like-named read-outs stand apart in the source and are kept apart here. Positions of bridges follow the written chain, without caps; N, C: chain ends. Non-standard residues stand in square brackets, D forms with d. Residues, ends and D or L forms follow the SMILES beside them.

How the values were obtained:
[1] = target: T1, type 2 somatostatin receptors (SSTR2) (Homo sapiens, UniProt P30874); test: Somatostatin receptor binding assay on IMR32 membranes
T1 construct: IMR32 membrane fractions (100-150 μg) were incubated with 0.015 pM; host or cells: IMR32 human neuroblastoma cells (membrane fractions)
T1 sequence (P30874 whole entry): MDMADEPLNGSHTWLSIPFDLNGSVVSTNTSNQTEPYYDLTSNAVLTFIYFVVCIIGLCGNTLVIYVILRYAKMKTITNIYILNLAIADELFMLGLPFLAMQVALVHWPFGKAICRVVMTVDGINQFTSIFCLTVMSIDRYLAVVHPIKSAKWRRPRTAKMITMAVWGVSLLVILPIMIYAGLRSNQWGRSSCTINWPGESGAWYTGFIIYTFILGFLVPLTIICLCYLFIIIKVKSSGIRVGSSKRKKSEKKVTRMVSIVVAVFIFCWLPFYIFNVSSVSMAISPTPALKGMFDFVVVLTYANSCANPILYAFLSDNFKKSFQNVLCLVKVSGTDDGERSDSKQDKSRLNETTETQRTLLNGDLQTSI
Experimental: The IMR32 cells were maintained in minimal essential media (MEM) supplemented with 15% heat-inactivated fetal bovine serum, 100 U/ml penicillin, 100 μg/ml streptomycin and nonessential amino acids. Cultured cells were harvested in a buffer containing 20 mM HEPES, 2 mM MgCl2, 5 mM EDTA, 1 mM 2-mercaptoethanol, 150 mM NaCl, and 50 μg/ml phenylmethylsulfonylfluoride (PMSF), (pH 7.4) at a concentration of 1×10^6 cells/ml. Cell membranes were prepared according to the method of O'Dorisio, M. S. et al., Cell Growth and Differentiation, 5:1-8, 1994. Membrane fractions were prepared by differential centrifugation and the membranes resuspended in buffer and stored at -80° for receptor binding studies.
Binding assays were carried out according to the method of O'Dorisio et al., supra. […] The reaction was terminated by centrifugation at 11,000×G for 3 minutes. Supernatant fluid was aspirated and the radioactivity of bound ligand in the pellet quantified in a gamma counter.
Specific binding was calculated using the difference between total and non-specific (in the presence of 1 μM unlabeled ligand) binding. Equilibrium dissociation constants (KD) and the maximal number of binding sites (Bmax) were determined using seven concentrations of unlabeled peptide in a competitive binding curve and calculated using a computerized nonlinear least squares fit to the mass-law equation of Munson and Rodbard, Munson, P. J. et al., Anal. Biochem., 107:220-239, 1980, as modified by McPhearson, G. A., J. of Pharm. Meth., 14:213-228, 1985.

[2] = system: rat pituitary cells, which express SSTR2; test: Inhibition of growth hormone (GH) release from acutely dispersed rat pituitary cells; assay type: cell-based; conditions: in the presence of 1 nM GRF(1-29)NH2, 3 h at 37° C., number in brackets = samples tested
Text: Pituitaries from adult Charles River CD male rats (Wilmington, Mass.) housed under controlled conditions (lights on from 0500-1900 hrs), were dispersed and cultured using aseptic technique as previously described with modifications (Hoefer et al., Mol. Cell Endocrinol., 35:229, (1984); Ben-Jonathan et al., i Methods Enzymol., 103:249, (1983); and Heiman et al., Endocrinology, 116:410, (1985).
Briefly, pituitaries were removed from decapitated rats, sectioned, and then placed in a siliconized, liquid scintillation vial containing 2 ml 0.2% trypsin (Worthington Biochemicals, Freehold, N.J.) in sterile-filtered Krebs-Ringer bicarbonate buffer supplemented with 1% bovine serum albumin, 14 mM glucose, modified Eagle medium (MEM) vitamin solution and MEM amino acids (Gibco Laboratories, Grand Island, N.Y.) (KRBGA). All glassware was siliconized as described by Sayers et al., Endocrinology, 88:1063, (1971). The pituitary fragments were incubated in a water bath for 35 min at 37° C. with agitation. The vial contents were then poured into a scintillation vial containing 2 ml 0.1% DNase (Sigma Chemical Co., St. Louis, Mo.) in KRBGA and incubated for 2 min at 37° C. with agitation. After incubation the tissue was decanted into a 15 ml centrifuge tube and allowed to settle. The medium was discarded, and the pituitary sections were washed 3 times with 1 ml fresh KRBGA. The cells were dispersed in 2 ml 0.05% LBI (lima bean trypsin inhibitor, Worthington Biochemicals) by gently drawing the fragments into and expelling them out of a siliconized, fire-polished Pasteur pipette. Dispersed cells were filtered through a 630 μm diameter Nylon mesh (Tetko, Elmsford, N.Y.) into a fresh 15 ml centrifuge tube. An additional 2 ml of 0.05% LBI solution was used to rinse the first tube and was transferred to the second tube with filtering.
The dispersed cells were further diluted with approximately 15 ml sterile-filtered Dulbecco's modified Eagle medium (GIBCO), supplemented with 2.5% fetal calf serum (GIBCO), 3% horse serum (GIBCO), 10% fresh rat serum (stored on ice for no longer than 1 h) from the pituitary donors, 1% MEM non-essential amino acids (GIBCO), gentamycin ([…]; Sigma) and nystatin (10,000 U/ml; GIBCO). The cells were poured into a 50 ml round-bottomed glass extraction flask with a large diameter opening, counted with a hemacytometer (approximately 2,000,000 cells per pituitary), and randomly plated at a density of 200,000 cells per well (Co-star cluster 24; Rochester Scientific Co., Rochester, N.Y.). The plated cells were maintained in Dulbecco's medium in a humidified atmosphere of 95% air and 5% CO2 at 37° C. for 4 days to 5 days.
In preparation for a hormone challenge, the cells were washed 3 times with medium 199 (GIBCO) to remove old medium and floating cells. […] After 3 h at 37° C. in an air/carbon dioxide atmosphere (95/5%), the medium was removed and stored at -20 ° C. until assayed for hormone content. IC50 's (a concentration that provides half-maximal inhibition of GH release) were calculated using the computer program SigmaPlot (Jandel Scientific, San Rafael, Calif.).

[3] = Stability of 131I-labeled peptides stored in saline; assay type: physicochemical; conditions: one week after labeling
Experimental: All specimen activity (μCi) was measured in a dose calibrator at least 30 minutes prior to intravenous injection. Radiolabeled peptide was injected through a peripheral arm vein in a free-flowing intravenous line. One week after labeling, only 30% of the ^131 I-labeled multi-tyrosinated peptides WOC-3A and WOC-3B compounds stored in saline had degraded.

[4] = system: bronchioloalveolar carcinoma of the lung (somatostatin receptor-expressing tumors); test: Biodistribution and dosimetry of 131I WOC-3A (1.6 mCi i.v.) in a human patient; assay type: in vivo; conditions: extrapolated for a dose of 1,500 mCi
Experimental: A batch of ^131 I WOC-3A (1.6 mCi) was made (Iso-Tex Corporation, Friendswood, TX) and its sterility and pyrogenicity tested at Iso-Tex. Radiolabeled WOC-3A was injected intravenously and the pharmacokinetics and biodistribution of the radiolabeled compound were calculated. The tumor/normal tissue ratio of distribution of radiolabeled WOC-3A was approximately 3:1 to 6:1.
Following injection of 1.6 mCi of ^131 I WOC-3A, the patient underwent three days of nuclear medicine scanning using a 3-headed SPECT camera as well as an ADAC camera. In addition, whole body radiation counts were obtained to calculate whole-body loss of radioisotope over the three day period. […] Bone marrow would receive in excess of 450 rads (a dose requiring bone marrow transplantation in 50% of patients). Thus, in preparation for bone marrow transplantation, the patient underwent bone marrow harvest to provide cells for reinfusion after WOC-3 therapy and sufficient clearance of the radiolabeled analog from the patient's circulation.

[5] = system: bronchioloalveolar carcinoma of the lung; test: Subcutaneous octreotide acetate therapy in a human patient; conditions: 2 mg/day subcutaneous
Text: The patient is a person diagnosed with bronchioloalveolar carcinoma of the lung approximately four years ago. […] underwent a right upperlobectomy and intensive chemotherapy with multiple agents.

[6] = IMR32 membranes, competitive binding, 17° C., 30 minutes

Kd [1, 6] | SMILES | IC50 [2] | also measured
 | CC(C)[C@@H]1NC(=O)[C@H](CCCCN)NC(=O)[C@@H](Cc2c[nH]c3ccccc23)NC(=O)[C@H](Cc2ccc(O)cc2)NC(=O)[C@@H](NC(=O)[C@H](N)Cc2ccc3ccccc3c2)CSSC[C@@H](C(=O)N[C@H](C(N)=O)[C@@H](C)O)NC1=O [LANREOTIDE ®, Dβ-Nal-Cys-Tyr-D-Trp-Lys-Val-Cys-Thr(NH2), reference compound] | 0.4 ± 0.1 nM | Kd [1]: 1.05 ± 0.51 nM
 | C[C@H](N)C(=O)NCC(=O)N[C@H]1CSSC[C@@H](C(=O)O)NC(=O)[C@H](CO)NC(=O)[C@H]([C@@H](C)O)NC(=O)[C@H](Cc2ccccc2)NC(=O)[C@H]([C@@H](C)O)NC(=O)[C@H](CCCCN)NC(=O)[C@H](Cc2c[nH]c3ccccc23)NC(=O)[C@H](Cc2ccccc2)NC(=O)[C@H](Cc2ccccc2)NC(=O)[C@H](CC(N)=O)NC(=O)[C@H](CCCCN)NC1=O [Somatostatin, reference compound] | 0.46 ± 0.04 nM | 
5.73 ± 0.22 nM | CC(C)[C@@H]1NC(=O)[C@H](CCCCN)NC(=O)[C@@H](Cc2c[nH]c3ccccc23)NC(=O)[C@H](Cc2ccc(O)cc2)NC(=O)[C@@H](NC(=O)[C@H](N)Cc2ccc(O)cc2)CSSC[C@@H](C(=O)N[C@H](C(N)=O)[C@@H](C)O)NC1=O [WOC-2A, cyclic-(D-tyrosine-cysteine-tyrosine-D-tryptophan-lysine-valine-cysteine-t hreonine-NH2)] | 4.84 ± 0.58 nM | 
1.2 nM | C[C@@H](O)[C@H](NC(=O)[C@@H]1CSSC[C@H](NC(=O)[C@@H](Cc2ccc(O)cc2)NC(=O)[C@@H](N)Cc2ccc(O)cc2)C(=O)N[C@@H](Cc2ccccc2)C(=O)N[C@H](Cc2c[nH]c3ccccc23)C(=O)N[C@@H](CCCCN)C(=O)N[C@@H]([C@@H](C)O)C(=O)N1)C(N)=O [WOC-2B, cyclic-(tyrosine-D-tyrosine-cysteine-phenylalanine-D-tryptophan-lysine-thr eonine-cysteine-threonine-NH2)] (H-Y[dY]CF[dW]KTCT-NH2; disulfide 3-8) |  | 
 | CC(C)[C@@H]1NC(=O)[C@H](CCCCN)NC(=O)[C@@H](Cc2c[nH]c3ccccc23)NC(=O)[C@H](Cc2ccc(O)cc2)NC(=O)[C@@H](NC(=O)[C@@H](Cc2ccc(O)cc2)NC(=O)[C@H](C)NC(=O)[C@@H](N)Cc2ccc(O)cc2)CSSC[C@@H](C(=O)N[C@H](C(N)=O)[C@@H](C)O)NC1=O [WOC-3A, cyclic(tyrosine-alanine-D-tyrosine-cysteine-tyrosine-D-tryptophan-lysine-v aline-cysteine-threonine)] (H-YA[dY]CY[dW]KVCT-NH2; disulfide 4-9) | 0.96 ± 0.01 nM | Displacement of bound radioactivity by unlabeled ligand ([1]; 10,000-fold excess of unlabeled WOC-3A or native somatostatin): no radioactivity was displaced; Total binding of radiolabeled analog to IMR-32 membranes ([1]; radiolabeled analog): high levels of total binding; Fraction of labeled peptide degraded [3]: 30%; Radiation dose to bone marrow [4]: > 450 rads
 | CC(C)[C@@H]1NC(=O)[C@H](CCCCN)NC(=O)[C@@H](Cc2c[nH]c3ccccc23)NC(=O)[C@H](Cc2ccc(O)cc2)NC(=O)[C@@H](NC(=O)[C@@H](Cc2ccc(O)cc2)NC(=O)[C@@H](N)Cc2ccc(O)cc2)CSSC[C@@H](C(=O)N[C@H](C(N)=O)[C@@H](C)O)NC1=O [WOC-3B, cyclic(tyrosine-D-tyrosine-cysteine-tyrosine-D-tryptophan-lysine-valine-cy steine-threonine)] (H-Y[dY]CY[dW]KVCT-NH2; disulfide 3-8) | 0.66 ± 0.06 nM | Fraction of labeled peptide degraded [3]: 30%
1 nM | C[C@@H](O)[C@H](NC(=O)[C@@H]1CSSC[C@H](NC(=O)[C@@H](Cc2ccc(O)cc2)NC(=O)[C@H](Cc2ccc(O)cc2)NC(=O)[C@H](Cc2ccc(O)cc2)NC(=O)[C@H](N)Cc2ccc(O)cc2)C(=O)N[C@@H](Cc2ccccc2)C(=O)N[C@H](Cc2c[nH]c3ccccc23)C(=O)N[C@@H](CCCCN)C(=O)N[C@@H]([C@@H](C)O)C(=O)N1)C(N)=O [WOC-4, cyclic(D-tyrosine-tyrosine-tyrosine-D-tyrosine-cysteine-phenylalanine-D-tr yptophan-lysine-threonine-cysteine-threonine)] (H-[dY]YY[dY]CF[dW]KTCT-NH2; disulfide 5-10) |  | 
 | C[C@@H](O)[C@H](NC(=O)[C@@H]1CSSC[C@H](NC(=O)[C@@H](Cc2ccccc2)NC(=O)[C@H](CCCCNC(=O)[C@H](CCCCNC(=O)[C@H](CCCCNC(=O)[C@H](N)Cc2ccc(O)cc2)NC(=O)[C@H](N)Cc2ccc(O)cc2)NC(=O)[C@H](CCCCNC(=O)[C@H](N)Cc2ccc(O)cc2)NC(=O)[C@H](N)Cc2ccc(O)cc2)NC(=O)[C@H](CCCCNC(=O)[C@H](CCCCNC(=O)[C@H](N)Cc2ccc(O)cc2)NC(=O)[C@H](N)Cc2ccc(O)cc2)NC(=O)[C@H](CCCCNC(=O)[C@H](N)Cc2ccc(O)cc2)NC(=O)[C@H](N)Cc2ccc(O)cc2)C(=O)N[C@@H](Cc2ccccc2)C(=O)N[C@H](Cc2c[nH]c3ccccc23)C(=O)N[C@@H](CCCCN)C(=O)N[C@@H]([C@@H](C)O)C(=O)N1)C(N)=O [WOC-8, cyclic[(D-tyrosine)8-(lysine)4-(lysine)2-lysine-cysteine-phenylalanine-D-tryptophan-lysine-threonine-cysteine-threonine]] | 2.46 ± 0.69 nM | 
 | C[C@@H](O)[C@@H]1NC(=O)[C@H](CCCCN)NC(=O)[C@@H](Cc2c[nH]c3ccccc23)NC(=O)[C@H](Cc2ccccc2)NC(=O)[C@@H](NC(=O)[C@H](N)Cc2ccccc2)CSSC[C@@H](C(=O)N[C@H](CO)[C@@H](C)O)NC1=O [octreotide acetate, D-Phe-Cys-Phe-D-Trp-Lys-Thr-Cys-Thr(ol)] |  | Tolerability of therapy [5]: tolerated this therapy well; Decrease in tumor volume ([5]; initial response, tumors later progressed): 25%
